“Also recorded” adds a separate entry of the source.

These results are taken from patent US20110039763A1, “TARGETED ANTIMICROBIAL MOIETIES” (C3 JIAN, INC., priority 2009, published 2011).

For the test, the system named is microorganisms. In words: Targeting peptide binding to target microorganisms (Tables 3, 10, 12). To be noted: microorganism(s) the targeting peptide binds; binding in aqueous buffers varied with peptide solubility, preferably 1x PBS.
“PF-348 (ESASAAEWYNPNMNVKKAICMG; Peptide with targeting and/or antimicrobial activity)”: the “Target(s)” value is recorded as “B. subtilis; also recorded: E. coli; also recorded: P. aeruginosa; also recorded: C. albicans; also recorded: E. faecalis; also recorded: C. jejuni”.

On to “PF-351 (YLFFKGKKVAEEEATKDEVKR; Peptide with targeting and/or antimicrobial activity)”, for which the “Target(s)” value was “S. mutans”. On to “PF-352 (RVKKIG; Peptide with targeting and/or antimicrobial activity)”, for which the “Target(s)” value was “C. jeikeium”. In the case of “PF-359 (MTVMEDPGSEQRNKIQSPMKGEDFSALFGR; Peptide with targeting and/or antimicrobial activity)” it was “S. epidermidis and B. fragilis and P. aeruginosa and C. albicans and MRSA and E. faecalis and C. jeikeium”; in that of “PF-361 (NQVTEGIRLLVE; Peptide with targeting and/or antimicrobial activity)”, “S. epidermidis; also recorded: E. coli; also recorded: E. faecalis; also recorded: C. jejuni”; in that of “PF-364 (LVNGIKI; Peptide with targeting and/or antimicrobial activity)”, “S. epidermidis; also recorded: B. fragilis; also recorded: P. aeruginosa; also recorded: C. jeikeium; also recorded: C. jejuni”. With “PF-365 (LYKQKIQLEEELEKLKDDRQ; Peptide with targeting and/or antimicrobial activity)”, the “Target(s)” value was “S. epidermidis; also recorded: B. subtilis; also recorded: B. fragilis; also recorded: P. aeruginosa; also recorded: C. albicans”. “PF-367 (TKTPGTFTPGTGIQKTAVPL; Peptide with targeting and/or antimicrobial activity)”: the “Target(s)” value is listed as “B. subtilis”. In the case of “PF-368 (MLKQTA; Peptide with targeting and/or antimicrobial activity)” it was “C. jeikeium; also recorded: C. jejuni”; in that of “PF-371 (TFIYNEF; Peptide with targeting and/or antimicrobial activity)”, “S. epidermidis; also recorded: B. fragilis; also recorded: C. jejuni”. Turning to “PF-372 (KKQDKRIEDKYKRMKKGD; Peptide with targeting and/or antimicrobial activity)”, the “Target(s)” value is “C. jeikeium; also recorded: C. jejuni”.

Consider “PF-384 (HISKERFEAY; Peptide with targeting and/or antimicrobial activity)”, for which the “Target(s)” value is “E. faecalis; also recorded: C. jeikeium; also recorded: C. jejuni”.

As to “PF-388 (ITPLLDEIGKVCIDKISK; Peptide with targeting and/or antimicrobial activity)”, the “Target(s)” value is “E. faecalis; also recorded: C. jeikeium; also recorded: C. jejuni”. In the case of “PF-400 (VIAWKFRNKFENSGV; Peptide with targeting and/or antimicrobial activity)” it was “S. epidermidis; also recorded: E. coli; also recorded: S. pneumoniae; also recorded: E. faecalis; also recorded: C. jeikeium”; in that of “PF-402 (FIDVLKSKINEFLN; Peptide with targeting and/or antimicrobial activity)”, “S. epidermidis; also recorded: P. aeruginosa; also recorded: E. faecalis; also recorded: C. jejuni”.

Take “PF-409 (DLVQSILSEFKKSG; Peptide with targeting and/or antimicrobial activity)”: the “Target(s)” value is “S. epidermidis and MRSA and C. jeikeium and C. jejuni”. As for “PF-412 (TSGWLGQLEQ; Peptide with targeting and/or antimicrobial activity)”, the “Target(s)” value is “M. luteus; also recorded: E. coli; also recorded: C. albicans; also recorded: C. jeikeium; also recorded: C. jejuni”. Consider “PF-435 (MSRWDGHSDKGEAPAGKPPMHGFGLNGENK; Peptide with targeting and/or antimicrobial activity)”, for which the “Target(s)” value is given as “C. jeikeium”. In the case of “PF-436 (KKHVLVGKQEKNG; Peptide with targeting and/or antimicrobial activity)” it was “C. jeikeium”; in that of “PF-438 (QPYFQNQFKKITGYTPLQYRKEKR; Peptide with targeting and/or antimicrobial activity)”, “S. epidermidis; also recorded: E. coli; also recorded: S. pneumoniae; also recorded: C. jeikeium; also recorded: C. jejuni”. With “PF-441 (TQVHKMARGIDPGPANGIYR; Peptide with targeting and/or antimicrobial activity)”, the “Target(s)” value is “C. jeikeium”. To “PF-463 (MVILVFSLIFIFTDNYLVYQSKSIKEDVMI; Peptide with targeting and/or antimicrobial activity)” belongs “S. epidermidis; also recorded: E. coli; also recorded: P. aeruginosa; also recorded: C. albicans; also recorded: S. pneumoniae; also recorded: E. faecalis; also recorded: M. smegmatis”; to “PF-481 (DELYEIMDKVIEEFNKDIEQNNNNGNNEDLTENKIN; Peptide with targeting and/or antimicrobial activity)”, “C. jeikeium”; to “PF-483 (EDNKDKKDKKDK; Peptide with targeting and/or antimicrobial activity)”, “P. mirabilis; also recorded: C. jeikeium; also recorded: C. jejuni”. Regarding “PF-486 (MQKEGEEDY; Peptide with targeting and/or antimicrobial activity)”, the “Target(s)” value is “S. mutans”.

Take “PF-487 (MYKAIAVLAMTIMAFFIFVYPFFIVGLILG; Peptide with targeting and/or antimicrobial activity)”: the “Target(s)” value is reported as “S. mutans; also recorded: E. coli”. In the case of “PF-488 (YPNEQGHHKNNLKNIIIE; Peptide with targeting and/or antimicrobial activity)” it was “S. mutans; also recorded: E. coli”; in that of “PF-489 (KVDRVSTTITEKIK; Peptide with targeting and/or antimicrobial activity)”, “S. mutans”; in that of “PF-490 (RLILVSGNATVQK; Peptide with targeting and/or antimicrobial activity)”, “S. mutans; also recorded: E. coli”.

Turning to “PF-491 (IHQYSSKPDIVGQEAKTVQQINS; Peptide with targeting and/or antimicrobial activity)”, the “Target(s)” value was “S. mutans; also recorded: E. coli”. To “PF-492 (IQIDAASFYSISKSTIK; Peptide with targeting and/or antimicrobial activity)” belongs “S. mutans; also recorded: B. subtilis; also recorded: E. coli”. In the case of “PF-493 (PGAFFFCRGRGCWCGIGW; Peptide with targeting and/or antimicrobial activity)” it was “S. mutans; also recorded: B. subtilis; also recorded: E. coli”.

In the case of “PF-494 (FTEPLRPLQAKGQIISIKPSTSSS; Peptide with targeting and/or antimicrobial activity)”, the “Target(s)” value is “S. mutans”. On to “PF-495 (KGIYKKRTY; Peptide with targeting and/or antimicrobial activity)”, for which the “Target(s)” value was “S. mutans; also recorded: E. coli”. To “PF-496 (EVTKRLVALAQQQLRG; Peptide with targeting and/or antimicrobial activity)” belongs “S. mutans; also recorded: E. coli”; to “PF-498 (MSEEEEVSEKVYNYLRRNEFFEVRKEEFSA; Peptide with targeting and/or antimicrobial activity)”, “S. mutans; also recorded: E. coli”; to “PF-500 (MGIFKEEKIKFIDCKGEEVILKIKIKDIKK; Peptide with targeting and/or antimicrobial activity)”, “S. mutans; also recorded: E. coli”. For the substance “PF-501 (GSTAHKSPIGSTNNQWGMKKTPTD; Peptide with targeting and/or antimicrobial activity)”, the “Target(s)” value was “S. mutans”.

Turning to “PF-502 (NKGKQMQDQTGKQPIVDNG; Peptide with targeting and/or antimicrobial activity)”, the “Target(s)” value was “S. mutans”. As for “PF-503 (VVTLKDIVAVIEDQGYDVQ; Peptide with targeting and/or antimicrobial activity)”, the “Target(s)” value is listed as “S. mutans”. With “PF-504 (ILSVELSTKTSASGS; Peptide with targeting and/or antimicrobial activity)”, the “Target(s)” value was “S. mutans; also recorded: E. coli”. To “PF-505 (GYTKDPGTGI; Peptide with targeting and/or antimicrobial activity)” belongs “S. mutans”; to “PF-506 (SGRGFALIVVLFILLIIVGAACIR; Peptide with targeting and/or antimicrobial activity)”, “S. mutans; also recorded: E. coli”; to “PF-507 (LALSIANLFKKKA; Peptide with targeting and/or antimicrobial activity)”, “S. mutans; also recorded: E. coli”. For the substance “PF-508 (VSTFGKVVKVVDEK; Peptide with targeting and/or antimicrobial activity)”, the “Target(s)” value is on record as “S. mutans”. To “PF-509 (EAKVQAKGEQIACNNY; Peptide with targeting and/or antimicrobial activity)” belongs “S. mutans; also recorded: B. subtilis; also recorded: E. coli”; to “PF-510 (WYLYKKQSNQNDRGIPK; Peptide with targeting and/or antimicrobial activity)”, “S. mutans; also recorded: E. coli”; to “PF-568 (TQAVQVKTAQAQQQ; Peptide with targeting and/or antimicrobial activity)”, “S. epidermidis”. In the case of “PF-570 (KKFPTEESHIQAVLEFKKLTEHPSG; Peptide with targeting and/or antimicrobial activity)” it was “S. pneumoniae; also recorded: C. jeikeium”; in that of “PF-641 (SWKCHHLAIGGSWKCHHLAI; Peptide with targeting and/or antimicrobial activity)”, “S. epidermidis and M. luteus and E. coli and C. albicans and MRSA and E. faecalis and C. jeikeium and C. jejuni”.
